Reference: patent US7473683B2, “Nonpolar thymidine analogs” (The Board of Trustees of the Leland Stanford Junior …, priority 2005, dated 2009)

Assays:
[1] = system: DNA Pol I (Klenow fragment, exo-); assay: steady-state kinetics of single nucleotide insertions, thymidine analogues in the template; assay type: biochemical, E. coli; set-up: efficiency: unit not given here; details: for efficiency as analog of thymidine in a template strand (summary): Example 4, dATP insertion; for Rel. efficiency: T template = 1; for rel. efficiency: relative to insertion of dATP opposite T
Procedure: (§1) In vitro steady-state kinetics. As polymerase substrates we used 28 mer/23 mer template-primer duplexes having the sequence (5′-ACT GXT CTCCCTATAGTGAGTCGTATTA [SEQ ID NO:1])·(5′-TAATACGACTCACTATAGGGAGA [SEQ ID NO:2]). Kinetics were measured at 37° C. in a buffer containing 10 mM Mg^2+. The primer was 5′ end-labeled and was extended by the polymerase in the presence of a single dNTP species over varied concentration and time. Products of single nucleotide insertions were resolved from unreacted primer by 20% denaturing gel electrophoresis, and were quantitated by autoradiography. Details of the kinetics experiments are given in the Supporting Data.
(§2) We chose DNA polymerase I (Klenow fragment, exonuclease-deficient) as an ideal candidate for initial study, as it is enzymatically well-characterized among replicative enzymes, and yet is relatively small and acts as a single subunit. We carried out kinetics studies of single nucleotide insertions in the steady state, using a gel electrophoresis-based assay.
(§3) Data for single nucleotide insertion kinetics in the steady-state. The enzyme was the Klenow fragment of DNA pol I from E. coli (exonuclease deficient). Methods are as described above.

[2] = system: self-complementary strands (5′-XCGCGCG); assay: dangling end thermal denaturation studies (base stacking) with self-complementary strands; assay type: physicochemical; details: dangling residue X in 5′-XCGCGCG
Procedure: Thermal Denaturation Studies. After the samples were prepared in melting buffer (1M NaCl, 10 mM phosphate buffer (pH 7.0) with 0.1 mM EDTA), they were heated to 95° C. and allowed to slowly cool at a rate of 1° C./min to 5° C. The melting studies were carried out in Teflon-stoppered 1 cm path length quartz cells on a Varian Cary 1 UV-vis spectophotometer equipped with thermoprogrammer. Absorbance was monitored at 280 nm for stacking and at 260 nm for base pairing. […] The data were analyzed by the melt curve processing program, MeltWin v. 3.0. Melting temperatures (Tm) were determined by computer-fit of the first derivative of absorbance with respect to 1/T. Uncertainty in Tm is estimated at ±0.5° C. based on repetitions of experiments. Free-energy values were derived by two methods: (1) computer-fitting the denaturation data with an algorithm employing linear sloping baselines, using the two-state approximation for melting. Fits were excellent, with χ^−2 values of 10^−6 or better. (2) Van't Hoff thermodynamic parameters were derived from linear plots of 1/Tm vs In[CT] by measuring Tm as a function of concentration.
Sequence Design. We incorporated all five phosphoramidites into three new sequence contexts each for further study of pairing and stacking properties. The first is a self-complementary sequence designed to form a hexamer duplex, with the nonnatural base analogue overhanging (dangling) at the 5′ ends (Table 2). This same sequence context has been used previously in several studies of DNA base stacking. The second and third contexts comprise a pair of 12mer sequences that form duplexes with well-behaved two-state behavior. One strand is pyrimidine-rich, while the other is purine-rich; we substituted each analogue at a central position of each strand to test two widely varied sequence contexts for pairing effects.
Base Stacking. DNA base stacking stability has been correlated with the size of compounds when mono-, bi-, tri-, and tetra-cyclic base analogues were compared. To test this with the present series, which varies in size by a smaller amount, we examined the short self-complementary oligonucleotides by thermal denaturation experiments. The self-complementary duplexes contained the modified nucleosides as a 5′ overhanging base.

[3] = system: DNA Pol I (Klenow fragment, exo-); assay: steady-state kinetics of single nucleotide insertions, incoming nucleotide analogues (dNTP/dXTP); assay type: biochemical, E. coli; details: for rel. efficiency: relative to insertion of dTTP opposite A
Procedure: as §1, §2, §3

[4] = Example 4: incorporating dATP opposite template thymidine analog
[5] = dNTP inserted opposite template base A, 37° C.
[6] = dNTP inserted opposite template base A, 37° C., 10 mM MgCl2, pH 7.5, normalized to lowest enzyme concentration
[7] = dNTP inserted opposite template base A
[8] = dNTP inserted opposite template base C, 37° C.
[9] = dNTP inserted opposite template base C, 37° C., 10 mM MgCl2, pH 7.5, normalized to lowest enzyme concentration
[10] = dNTP inserted opposite template base C
[11] = dNTP inserted opposite template base G, 37° C.
[12] = dNTP inserted opposite template base G, 37° C., 10 mM MgCl2, pH 7.5, normalized to lowest enzyme concentration
[13] = dNTP inserted opposite template base G
[14] = dNTP inserted opposite template base T, 37° C.
[15] = dNTP inserted opposite template base T, 37° C., 10 mM MgCl2, pH 7.5, normalized to lowest enzyme concentration
[16] = dNTP inserted opposite template base T
[17] = Example 4: incorporating dXTP opposite adenine in a DNA template

Compound	Km [1, 4] [µM]	Vmax [1, 4]	efficiency [1, 4]	Rel. efficiency [1, 4]	Km [3, 5] [µM]	Vmax [3, 6] [% · min^−1]	rel. efficiency [3, 7]	Km [3, 8] [µM]	Vmax [3, 9] [% · min^−1]	rel. efficiency [3, 10]	Km [3, 11] [µM]	Vmax [3, 12] [% · min^−1]	rel. efficiency [3, 13]	Km [3, 14] [µM]	Vmax [3, 15] [% · min^−1]	rel. efficiency [3, 16]	also measured
Cc1cc([C@H]2C[C@@H](O)[C@@H](CO)O2)c(Cl)cc1Br [2C4B]	4.18 ± 0.47	30.4709 ± 0.8544	(7.38 ± 1.07) × 10^6	4.0 × 10^−1													efficiency as analog of thymidine in a template strand (summary) [1]: probably as good
Cc1cc([C@H]2C[C@@H](O)[C@@H](CO)O2)c(Cl)cc1Cl [2C4C, 2,4-dichlorotoluene]																	efficiency as analog of thymidine in a template strand (summary) [1]: most efficient analog overall
Cc1cc([C@H]2C[C@@H](O)[C@@H](CO)O2)c(F)cc1Cl [2F4C]	7.51 ± 2.79	49.7002 ± 1.5432	(7.13 ± 2.13) × 10^6	3.8 × 10^−1													efficiency as analog of thymidine in a template strand (summary) [1]: probably as good
Cc1cc([C@H]2C[C@@H](O)[C@@H](CO)O2)ccc1Cl [2H4C]	31.5 ± 8.91	2.8214 ± 0.5396	(9.81 ± 1.58) × 10^4	5.3 × 10^−3													
Cc1cc([C@H]2C[C@@H](O)[C@@H](CO)O2)cc(Cl)c1Cl [3,4-di-C]	55 ± 24	0.4291 ± 0.1095	(8.30 ± 1.55) × 10^3	4.5 × 10^−4													
Cc1cc(Cl)cc([C@H]2C[C@@H](O)[C@@H](CO)O2)c1 [3C]	51.9 ± 1.9	0.4378 ± 0.1116	(8.62 ± 0.85) × 10^3	4.6 × 10^−4													
Cc1c[nH]c(=O)[nH]c1=O [T, thymine, reference compound]	2.6 ± 0.75	45.7931 ± 1.7743	(1.86 ± 0.56) × 10^7	1													Km ([1]; insertion of dATP opposite template base, 37° C.): 1.9 ± 0.5 µM; Vmax ([1]; insertion of dATP opposite template base, 37° C., 10 mM MgCl2, pH 7.5, normalized to lowest enzyme concentration): 24 ± 1 % · m in^−1; rel. efficiency ([1]; insertion of dATP opposite template base): 1; Km ([1]; insertion of dCTP opposite template base, 37° C.): 46 ± 28 µM; Vmax ([1]; insertion of dCTP opposite template base, 37° C., 10 mM MgCl2, pH 7.5, normalized to lowest enzyme concentration): 0.022 ± 0.006 % · m in^−1; rel. efficiency ([1]; insertion of dCTP opposite template base): 3.7 × 10^−5; Vmax ([1]; insertion of dGTP opposite template base, 37° C., 10 mM MgCl2, pH 7.5, normalized to lowest enzyme concentration): 0.41 ± 0.15 % · m in^−1; rel. efficiency ([1]; insertion of dGTP opposite template base): 5.6 × 10^−4; Km ([1]; insertion of dTTP opposite template base, 37° C.): 38 ± 38 µM; Vmax ([1]; insertion of dTTP opposite template base, 37° C., 10 mM MgCl2, pH 7.5, normalized to lowest enzyme concentration): 0.012 ± 0.004 % · m in^−1; rel. efficiency ([1]; insertion of dTTP opposite template base): 2.5 × 10^−5; ΔG°37 (van't Hoff) [2]: -9.1 ± 0.1 kcal/mol; ΔH° (van't Hoff) [2]: -54.4 ± 4.1 kcal/mol; ΔS° (van't Hoff) [2]: −146 ± 13 cal/K · mol; ΔΔG° stacking per base [2]: 0.65 kcal/mol; Tm ([2]; 5.0 μM DNA strand, 1M NaCl, 10 mM phosphate buffer (pH 7.0), 0.1 mM EDTA, 280 nm): 46.0 °C; ΔG°37 (fits) ([2]; curve fits): -9.1 ± 0.1 kcal/mol; ΔTm ([2]; versus duplex with no dangling residue): 7.4 °C
Cc1cc(C2CC(O)C(COP(=O)(O)OP(=O)(O)OP(=O)(O)O)O2)c(Br)cc1Br (stereo not drawn) [dBTP]					23 ± 6	13 ± 2	3.6 × 10^−2	74 ± 22	0.016 ± 0.001	1.4 × 10^−5	50 ± 10	0.0094 ± 0.0004	1.2 × 10^−5	38 ± 21	0.8 ± 0.16	1.3 × 10^−3	
Cc1cc(C2CC(O)C(COP(=O)(O)OP(=O)(O)OP(=O)(O)O)O2)c(F)cc1F (stereo not drawn) [dFTP, reference compound]					29 ± 10	2.9 ± 0.1	6.3 × 10^−3	200 ± 110	0.012 ± 0.004	3.8 × 10^−6	300 ± 120	0.0067 ± 0.0017	1.4 × 10^−6	37 ± 15	0.0066 ± 0.0010	1.1 × 10^−5	
Cc1cccc(C2CC(O)C(COP(=O)(O)OP(=O)(O)OP(=O)(O)O)O2)c1 (stereo not drawn) [dHTP]					110 ± 20	0.11 ± 0.20	6.3 × 10^−5	310 ± 170	0.0067 ± 0.0023	1.4 × 10^−6	200 ± 90	0.0065 ± 0.0016	2.0 × 10^−6	59 ± 27	0.0046 ± 0.0011	4.9 × 10^−6	
Cc1cccc(C2CC(O)C(CO)O2)c1 (stereo not drawn) [dH]																	fidelity (efficiency of correct T analog:A pair divided by efficiency of the most efficient mismatch) ([1]; varied-size template nucleoside mimics, insertion of dATP vs mismatch): 45
Cc1cc(C2CC(O)C(COP(=O)(O)OP(=O)(O)OP(=O)(O)O)O2)c(I)cc1I (stereo not drawn) [dITP]					18 ± 2	1.8 ± 0.1	6.3 × 10^−3	23 ± 1	0.0023 ± 0.0004	6.3 × 10^−6	43 ± 7	0.0020 ± 0.0001	2.9 × 10^−6	37 ± 7	0.23 ± 0.02	3.9 × 10^−4	
Cc1cc(C2CC(O)C(COP(=O)(O)OP(=O)(O)OP(=O)(O)O)O2)c(Cl)cc1Cl (stereo not drawn) [dLTP]					18 ± 5	39 ± 4	1.4 × 10^−1	160 ± 66	0.050 ± 0.010	1.9 × 10^−5	110 ± 30	0.035 ± 0.004	2.0 × 10^−5	62 ± 21	0.54 ± 0.10	5.4 × 10^−4	efficiency lower than for insertion of natural dTTP ([3]; dNTP analog inserted opposite adenine): 7 fold
Cc1cn([C@H]2C[C@H](O)[C@@H](COP(=O)(O)OP(=O)(O)OP(=O)(O)O)O2)c(=O)[nH]c1=O [dTTP, reference compound]					1.9 ± 0.4	30 ± 3	1	510 ± 400	0.067 ± 0.040	6.3 × 10^−6	140 ± 86	0.42 ± 0.18	2.5 × 10^−4	63 ± 18	0.010 ± 0.002	1.0 × 10^−5	Km [3, 17]: 1.56 ± 1 µM; Vmax [3, 17]: 30.70 ± 12.0; efficiency [3, 17]: (2.29 ± 0.9) × 10^7; Rel. efficiency ([3]; Example 4: incorporating dXTP opposite adenine in a DNA template, dTTP = 1): 1
